{
  "source": "patent US10413576B2",
  "about": "“Therapy for use in the treatment of tumors, acquired immunodeficiency syndrome and leukemias by dual immune biostimulation” (priority 2014, dated 2019)",
  "system": "peripheral blood mononuclear cells (PBMC)",
  "assay": "PBMC cell proliferation analysis (BrdU, cytofluorimetry)",
  "assay_type": "cell-based, human",
  "settings": "PBMC proliferative response vs absence of stimulation (baseline); cut-off P.I. 2",
  "description": "Next, peripheral blood mononuclear cells were separated. The peripheral blood mononuclear cells (PBMC) were separated by density gradient centrifugation. For this aim, 20 ml of “buffy coat” of healthy donors from the immune-transfusion Service of Ospedale di Borgomanero (Italy) were used for each experiment, thus obtaining an average yield of 200×10^6 PBMC/buffy. The amount of separated cells was determined by cell count in Burker's chambers, using Turk's dye, which allows to discriminating between mononuclear and polymorphonuclear cells. […]\nThen, the cell proliferation analysis was performed. Cell proliferation was assessed with a cytofluorimetric technique by using the bromodeoxyuridine (BrdU) nuclear labeling protocol. […] Following to 16-hour incubation at 37° C. under humidified atmosphere, 5% CO2, the cell proliferation was analyzed by a cytofluorirnetric technique. […] The cells were analyzed within 24 hours from their preparation by using a cytofluorimeter FACScalibur from Becton Dikinson Company and the analysis program CellQuest.\nResults were expressed as cell proliferation index (P.I.), being calculated as ratio of the percentage of proliferating cells in the presence of stimulus and the percentage of the same in the absence of stimulation, A P.I. value greater than 2 was considered acceptable (cut-off value). […]",
  "note": "“Also recorded” adds a separate entry of the source.",
  "data": [
    {"substance": "Phytohaemagglutinin [PHA]", "values": [
      {"measurement": "cell proliferation index (P.I.)", "value": "significantly higher; also recorded: greater than the cut-off value"}
    ]}
  ]
}
